Data as given in patent US9598387B2 (Southern Research Institute, priority 2012, dated 2017).

How the values were obtained:
Type in all cases: cell-based
human D2 receptors = human D2 receptors (Homo sapiens (Human), UniProt P14416); experiment: D2 Mitogenesis Functional Assay (3H-thymidine uptake, CHOp-D2 cells); conditions: inhibition of quinpirole (30 nM final) stimulation of mitogenesis; read-out: D2 Antagonist IC50
[1] = molecular target: human D2 dopamine receptors (Homo sapiens (Human), UniProt P14416); experiment: Whole Cell Adenylyl Cyclase Assay, D2; conditions: inhibition of forskolin (100 μM) stimulated cAMP, normalized to quinpirole; compound conc ≥10× Ki (per compound); mean ± S.E.M.
[2] = molecular target: human D3 dopamine receptor (Homo sapiens (Human), UniProt P35462); experiment: Whole Cell Adenylyl Cyclase Assay, D3; conditions: inhibition of forskolin (100 μM) stimulated cAMP, normalized to quinpirole; compound conc ≥10× Ki (per compound); mean ± S.E.M.
Chain of human D3 dopamine receptor (P35462 whole entry): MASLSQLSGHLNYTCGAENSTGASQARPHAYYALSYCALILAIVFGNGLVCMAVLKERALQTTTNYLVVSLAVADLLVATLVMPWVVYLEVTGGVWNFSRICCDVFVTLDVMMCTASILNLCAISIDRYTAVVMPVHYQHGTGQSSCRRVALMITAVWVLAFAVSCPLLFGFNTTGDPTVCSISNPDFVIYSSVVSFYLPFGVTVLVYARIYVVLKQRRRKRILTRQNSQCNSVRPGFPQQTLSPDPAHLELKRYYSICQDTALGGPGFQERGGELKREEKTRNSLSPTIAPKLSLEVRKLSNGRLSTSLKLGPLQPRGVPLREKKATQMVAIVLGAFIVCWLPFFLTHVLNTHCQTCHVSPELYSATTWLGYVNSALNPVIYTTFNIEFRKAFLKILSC

Chain of human D2 receptors (P14416 whole entry): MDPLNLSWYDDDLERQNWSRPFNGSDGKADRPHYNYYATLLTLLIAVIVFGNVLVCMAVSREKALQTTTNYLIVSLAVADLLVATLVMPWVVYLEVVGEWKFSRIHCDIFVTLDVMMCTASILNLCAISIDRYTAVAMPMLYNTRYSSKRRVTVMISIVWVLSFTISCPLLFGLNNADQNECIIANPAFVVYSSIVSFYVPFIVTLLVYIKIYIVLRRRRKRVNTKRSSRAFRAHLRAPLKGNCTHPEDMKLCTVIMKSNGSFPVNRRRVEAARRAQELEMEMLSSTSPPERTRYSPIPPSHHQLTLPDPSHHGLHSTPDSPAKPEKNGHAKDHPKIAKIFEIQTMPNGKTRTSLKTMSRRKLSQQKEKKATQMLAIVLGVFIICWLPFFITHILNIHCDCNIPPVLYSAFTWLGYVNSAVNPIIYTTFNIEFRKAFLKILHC
Chain of human D2 dopamine receptors (P14416 whole entry): as above

Q: With `CC(C)(C)c1nc(N2CCN(CCCCNC(=O)c3cn4ccccc4n3)CC2)cc(C(F)(F)F)n1` [Compound 113, N-(4-(4-(2-(tert-Butyl)-6-(trifluoromethyl)pyrimidin-4-yl)piperazin-1-yl)butyl)imidazo[1,2-a]pyridine-2-carboxamide] as the molecule, how does the IC50 (human D2 receptors) read?
A: 2.3 ± 1.1 µM

Q: What about the “D2 Cyclase % Inhibition Normalized” value [1] of the same molecule?
A: −1.9 ± 13.3%

Q: And the “D3 Cyclase % Inhibition Normalized” value [2]?
A: 27.7 ± 7.0%
